Reference: patent publication US20130122085A1, “PHARMACEUTICAL COMPOSITIONS OF SELECTIVE ANDROGEN RECEPTOR MODULATORS AND METHODS OF USE THEREOF” (priority 2011, published 2013)

Assays:
[1] = test system: ovariectomized female rats; assay: Delivery system study: lean body mass and serum HDL in OVX rats; assay type: in vivo, rat; conditions: 14 days, 0.13 mg/kg/day constant rate subcutaneous infusion (Alzet pump) vs daily subcutaneous injection
Experimental: Female rats were ovariectomized and randomized by body weight into groups of 10. Treatment groups included: (1) 3 mg/kg/day DHT administered daily via subcutaneous injection, (2) 0.13 mg/kg/day S-I administered daily via subcutaneous injection, and (3) 0.13 mg/kg/day S-I administered at a constant rate via subcutaneous infusion by an Alzet pump. Baseline measurements of fasting serum HDL as determined by enzymatic assay were performed via retroorbital blood draw for all animals. Baseline lean body mass (LBM) as determined by magnetic resonance was determined for all animals. After 14 days of treatment, changes from baseline in lean body mass (Δ LBM) and fasting serum HDL (Δ HDL) were determined and represented as a percentage of DHT treated animals.

[2] = Exposure of S-I in female rats; assay type: in vivo, rat
Experimental: The exposure of S-I in female rats was AUCinf of 147,000 ng*hr/ml following a single 10 mg per kg IV dose. With the reasonable assumption that the SC Alzet pump dose was completely absorbed, a 0.13 mg per kg dose should result in an exposure of −1911 ng*hr/mL in rats. […] In other words, the 0.13 mg per kg per day Alzet dose in rats is equivalent to a 10 mg per day continuous release dose in humans, such as might be accomplished by a mechanical or osmotic pump, or transdermal patch, or the like.

[3] = test system: patients with cancer; assay: Phase II double-blind, placebo-controlled study in cancer patients with weight loss; assay type: in vivo, human; conditions: 3 mg dose, 4 months
Experimental: A Phase II double-blind, placebo-controlled study was performed with patients with cancer that had experienced at least a 2% total body weight loss in the 6 months prior to the study. The subjects received S-I or matching placebo for 4 months. In this study, no exercise program was mandated and no diet control or monitoring was conducted. The primary endpoint of this study was total lean body mass. The key secondary endpoint of this study was physical function (stair climb speed and power).

[4] = Steady-state exposure in healthy young men (G100402, MAD); conditions: male, human, in vivo, 10 mg daily doses

C[C@](O)(COc1ccc(C#N)cc1)C(=O)Nc1ccc(C#N)c(C(F)(F)F)c1 [Compound S-I, (S)—N-(4-cyano-3-(trifluoromethyl)phenyl)-3-(4-cyanophenoxy)-2-hydroxy-2-methylpropanamide]
change from baseline in fasting serum HDL (Δ HDL) [1]: smaller decrease in serum HDL | change from baseline in lean body mass (Δ LBM) [1]: larger increase in LBM than daily subcutaneous injections | AUC(0-inf) ([2]; rat, in vivo, 10 mg/kg, female rats, single 10 mg per kg IV dose): 147000 ng·h/mL | exposure expected at 0.13 mg per kg dose ([2]; rats, SC Alzet pump dose assumed completely absorbed, extrapolated from 10 mg per kg IV): -1911 ng·h/mL | power subjects were able to exert climbing 12 steps ([3]; p=0.001 compared to baseline, p=0.058 compared to placebo): statistically significant increase | time it took the subjects to climb 12 steps ([3]; p=0.007 compared to baseline, p=0.028 compared to placebo): statistically significant decrease | total lean body mass ([3]; p=0.015 compared to placebo, p=0.020 compared to baseline): statistically significant increase | AUC(0-t) [4]: 1750 ng·h/mL
